Data published in the CheMixHub ionic liquid set.

Assay: xn = mol fraction of the nth substance listed
Details: 101 kPa

[Cl-].[Li+] + CCCCCC[n+]1ccn(C)c1.N#C[S-] + CN1CCCC1=O
298.15 K
Details | viscosity [mPa·s]
x2 = 0, x1 = 0.04156 | 2.626
x2 = 0, x1 = 0.07132 | 3.558
x2 = 0, x1 = 0.1038 | 4.959

CCCCCCCCn1cc[n+](C)c1.F[B-](F)(F)F + CCCCOC(C)=O
298.15 K
Details | viscosity [mPa·s]
x2 = 0.114 | 187
x2 = 0.4512 | 34.1
x2 = 0.9065 | 1.76

FC(F)C(F)(F)OCC(F)(F)C(F)(F)C(F)(F)C(F)F + CCCC[N+]1(C)CCCC1.FC(F)(F)C(F)(F)[P-](F)(F)(F)(C(F)(F)C(F)(F)F)C(F)(F)C(F)(F)F
Details | electrical conductivity [S/m] | viscosity [mPa·s]
298.1 K, x2 = 0 | – | 2.5
298.1 K, x2 = 0.12 | 0.18 | –
298.1 K, x2 = 0.191 | – | 7.43
298.1 K, x2 = 0.194 | 0.257 | –
298.1 K, x2 = 0.272 | 0.28 | –
298.1 K, x2 = 0.363 | 0.306 | –
298.1 K, x2 = 0.454 | 0.291 | –
298.1 K, x2 = 0.456 | – | 25.4
298.1 K, x2 = 0.564 | 0.241 | –
298.1 K, x2 = 0.694 | 0.182 | 65.6
298.1 K, x2 = 0.847 | – | 117.9
298.1 K, x2 = 0.853 | 0.161 | –
303 K, x2 = 0.12 | 0.199 | –
303 K, x2 = 0.123 | – | 4.63
303 K, x2 = 0.194 | 0.29 | –
303 K, x2 = 0.269 | 0.32 | –
303 K, x2 = 0.359 | 0.35 | –
303 K, x2 = 0.361 | – | 14.13
303 K, x2 = 0.457 | 0.335 | –
303 K, x2 = 0.567 | 0.288 | 32.7
303 K, x2 = 0.694 | 0.23 | –
303 K, x2 = 0.847 | – | 91.9
303 K, x2 = 0.85 | 0.198 | –
308.1 K, x2 = 0 | – | 2.12
308.1 K, x2 = 0.123 | 0.217 | –
308.1 K, x2 = 0.191 | 0.32 | –
308.1 K, x2 = 0.272 | 0.36 | –
308.1 K, x2 = 0.273 | – | 8.09
308.1 K, x2 = 0.366 | 0.401 | –
308.1 K, x2 = 0.456 | – | 17.2
308.1 K, x2 = 0.463 | 0.39 | –
308.1 K, x2 = 0.564 | 0.343 | –
308.1 K, x2 = 0.691 | 0.27 | –
308.1 K, x2 = 0.847 | 0.234 | 71.6
313 K, x2 = 0.058 | – | 2.88
313 K, x2 = 0.123 | 0.239 | –
313 K, x2 = 0.197 | 0.356 | –
313 K, x2 = 0.272 | 0.412 | –
313 K, x2 = 0.359 | 0.449 | –
313 K, x2 = 0.361 | – | 11.01
313 K, x2 = 0.46 | 0.442 | –
313 K, x2 = 0.57 | 0.387 | –
313 K, x2 = 0.691 | 0.322 | –
313 K, x2 = 0.694 | – | 33.7
313 K, x2 = 0.847 | – | 60.6
313 K, x2 = 0.85 | 0.289 | –
318.1 K, x2 = 0 | – | 1.65
318.1 K, x2 = 0.12 | – | 3.41
318.1 K, x2 = 0.123 | 0.261 | –
318.1 K, x2 = 0.194 | 0.389 | –
318.1 K, x2 = 0.271 | 0.452 | –
318.1 K, x2 = 0.362 | 0.5 | –
318.1 K, x2 = 0.45 | 0.504 | –
318.1 K, x2 = 0.456 | – | 13.04
318.1 K, x2 = 0.567 | 0.449 | –
318.1 K, x2 = 0.69 | 0.373 | –
318.1 K, x2 = 0.691 | – | 27.8
318.1 K, x2 = 0.844 | – | 49.9
318.1 K, x2 = 0.846 | 0.337 | –
323 K, x2 = 0 | – | 1.52
323 K, x2 = 0.119 | 0.283 | –
323 K, x2 = 0.19 | 0.43 | –
323 K, x2 = 0.195 | – | 4.04
323 K, x2 = 0.271 | 0.5 | –
323 K, x2 = 0.358 | – | 7.89
323 K, x2 = 0.359 | 0.558 | –
323 K, x2 = 0.453 | 0.566 | –
323 K, x2 = 0.563 | 0.508 | –
323 K, x2 = 0.567 | – | 15.44
323 K, x2 = 0.69 | 0.424 | –
323 K, x2 = 0.846 | 0.392 | –
323 K, x2 = 0.848 | – | 40
